Test results from patent US4018801A, “Substituted oxirane compounds” (The Dow Chemical Company, priority 1975, dated 1977).

Tests used:
Type in all cases: in vivo
[1] = system: Corn; assay: Pre-emergent control of seed germination, soil drench; settings: about 2 weeks
Text: (§1) Four parts by weight of the compound, 0.08 part of sorbitan trioleate (Span 85), and 0.02 part of a sorbitan monooleate polyoxyethylene derivative (Tween 80) are dipersed in 40 milliliters of acetone to produce a concentrate composition in the form of a water-dispersible liquid containing the predetermined oxirane compound as the sole active agent.
(§2) A portion of each of these concentrate compositions were separately dispersed in portions of water to provide aqueous compositions, containing 0.44 pound of the oxirane compound per 100 gallons of ultimate aqueous mixture.
(§3) The aqueous compositions were then employed for the treatment of seed beds of good agricultural soil which had been prepared and seeded with the seeds of various grass species and broadleaf plants. The grass species included white winter wheat, cultured rice, pigweeds, crabgrass, cheat grass, wild oats, Johnson grass, barnyard grass and yellow foxtail; and the broadleaf plants included corn. In the treating operations, a predetermined quantity of each of the compositions was applied to separate seedbeds as a soil drench at a rate of about 0.43 acre inch of aqueous composition per acre. The quantities were controlled to supply a substantial uniform dosage in a seedbed equivalent to 1.0, 2.0 and 5.0 pounds of the oxirane compound per acre. These dosages correspond, respectively, to a concentration, within the soil depth penetrated of about 1.6, 3.2 and 8.0 parts by weight of the oxirane compound per million parts by weight of soil. Other seedbeds were similarly seeded with the named plant species but were left untreated to serve as checks.
After about 2 weeks the seedbeds were examined to ascertain what control of the growth of seeds had been obtained. […]
An aqueous composition containing 2-(α,α,α -trifluoro-m-tolyl)-2-(2,2,2-trichloroethyl)oxirane was prepared as described in Example 32. The composition was then employed according to the procedures of Example 32 except that lower concentrations of the oxirane compound were employed in the composition.
The percent control of the various plant species at the employed dosage rate of the 2-(α,α,α-trifluoro-m-tolyl)- 2-(2,2,2-trichloroethyl) supplied by the composition is set forth in the following Table IV.

[2] = system: Yellow Foxtail; assay: as above; settings: Yellow Foxtail, about 2 weeks
How it was run: (§4)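 Compound formulated with Span 85/Tween 80 in acetone, dispersed in water, and applied as a soil drench to seeded beds at 1.0, 2.0 and 5.0 lb/acre (about 1.6, 3.2, 8.0 ppm soil); lower concentrations also tested. Germination control scored versus untreated checks after about 2 weeks.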

[3] = system: Pigweeds; assay: as above; settings: Pig Weeds, about 2 weeks
How it was run: as §4

[4] = system: Water-Grass; assay: Comparative pre-emergence herbicide test
Text: as §1, §2, §3
After about 2 weeks the seedbeds were examined to ascertain what control of the growth of seeds had been obtained.
Separate aqueous compositions containing the 2-(m-chlorophenyl)-2-(2,2,2-trichloroethyl)oxirane (Cmpd. A) and 2-(m-bromophenyl)-2-(2,2,2-trichloroethyl)oxirane (Cmpd. C) compounds of the present invention were prepared as in Example 32 for comparative per-emergence herbicide tests against noxious grass species with the known 2 -(p-chlorophenyl)-2-(2,2,2-trichloroethyl)oxirane (Cmpd. B) compound and 2-(p-bromophenyl)-2-(2,2,2-trichloroethyl)oxirane (Cmpd. D). The pre-emergence tests were conducted in Example 32 and the results of such tests are set forth below in Table III.

[5] = system: Yellow Foxtail; assay: Post-emergent control, foliage spray; settings: about two weeks
Protocol: (§5) An aqueous composition containing 2-(m-bromophenyl)- 2-(2,2,2-trichloroethyl)oxirane was prepared as described in Example 32. Separate portions of this composition were thereafter dispersed in a further quantity of water to prepare aqueous spray compositions containing 250, 500, 1000, 2000 and 4000 parts, respectively of the compound per million parts by weight of ultimate treating composition. These compositions were applied as foliage sprays to various grass and broadleaf plant species, the plants being of two to four inches in height and growing in seed beds. The treatments were carried out with conventional spray equipment, the plants being sprayed to the point of run-off. Similar beds of the plant species were left untreated to serve as checks. After about two weeks, the beds were examined to ascertain what control of the growth of plants had been obtained. The plant species employed, together with the percent control obtained at the employed dosage rate of the composition is set forth in the following Table V.

[6] = system: White Winter Wheat; assay: Post-emergent control, foliage spray; settings: about two weeks
Protocol: as §5

[7] = system: Crabgrass; assay: Post-emergent control, foliage spray; settings: about two weeks
Protocol: as §5

[8] = system: Corn; assay: Post-emergent control, foliage spray; settings: about two weeks
Protocol: as §5

[9] = system: Wild Oats; assay: Post-emergent control, foliage spray; settings: about two weeks
Protocol: as §5

[10] = system: Cotton; assay: Post-emergent control, foliage spray; settings: about two weeks
Protocol: as §5

[11] = system: Johnson Grass; assay: Post-emergent control, foliage spray; settings: about two weeks
Protocol: as §5

[12] = system: Soybean; assay: Post-emergent control, foliage spray; settings: about two weeks
Protocol: as §5

[13] = system: Pinto Beans; assay: Post-emergent control, foliage spray; settings: about two weeks
Protocol: as §5

[14] = system: Cultured Rice; assay: Post-emergent control, foliage spray; settings: about two weeks
Protocol: as §5

[15] = system: Barnyard Grass; assay: Post-emergent control, foliage spray; settings: about two weeks
Protocol: as §5

## ClC(Cl)(Cl)CC1(c2cccc(Br)c2)CO1 (stereo not drawn) [Example 3, 2-(m-bromophenyl)-2-(2,2,2-trichloroethyl)oxirane]
[1]; 1.0 pounds per surface acre
  Percent Pre-Emergent Control of Seed Germination: 30%
[1]; 2.0 pounds per surface acre
  Percent Pre-Emergent Control of Seed Germination: 95%
[1]; 5.0 pounds per surface acre
  Percent Pre-Emergent Control of Seed Germination: 95%
[2]; 1.0 pounds per surface acre
  Percent Pre-Emergent Control of Seed Germination: 100%
[2]; 2.0 pounds per surface acre
  Percent Pre-Emergent Control of Seed Germination: 100%
[2]; 5.0 pounds per surface acre
  Percent Pre-Emergent Control of Seed Germination: 95%
[3]; 1.0 pounds per surface acre
  Percent Pre-Emergent Control of Seed Germination: 95%
[3]; 2.0 pounds per surface acre
  Percent Pre-Emergent Control of Seed Germination: 100%
[3]; 5.0 pounds per surface acre
  Percent Pre-Emergent Control of Seed Germination: 100%
[4]; 1/8 Lb/Acre
  % Control: 95%
[4]; 1/16 Lb/Acre
  % Control: 90%
[5]; 250 parts per million
  Percent Post-Emergent Control of Seed Germination: 40%
[5]; 500 parts per million
  Percent Post-Emergent Control of Seed Germination: 95%
[5]; 1000 parts per million
  Percent Post-Emergent Control of Seed Germination: 95%
[5]; 2000 parts per million
  Percent Post-Emergent Control of Seed Germination: 95%
[5]; 4000 parts per million
  Percent Post-Emergent Control of Seed Germination: 95%
[6]; 250 parts per million
  Percent Post-Emergent Control of Seed Germination: 0%
[6]; 500 parts per million
  Percent Post-Emergent Control of Seed Germination: 0%
[6]; 1000 parts per million
  Percent Post-Emergent Control of Seed Germination: 50%
[6]; 2000 parts per million
  Percent Post-Emergent Control of Seed Germination: 50%
[6]; 4000 parts per million
  Percent Post-Emergent Control of Seed Germination: 50%
[7]; 250 parts per million
  Percent Post-Emergent Control of Seed Germination: 30%
[7]; 500 parts per million
  Percent Post-Emergent Control of Seed Germination: 65%
[7]; 1000 parts per million
  Percent Post-Emergent Control of Seed Germination: 95%
[7]; 2000 parts per million
  Percent Post-Emergent Control of Seed Germination: 95%
[7]; 4000 parts per million
  Percent Post-Emergent Control of Seed Germination: 95%
[8]; 250 parts per million
  Percent Post-Emergent Control of Seed Germination: 0%
[8]; 500 parts per million
  Percent Post-Emergent Control of Seed Germination: 30%
[8]; 1000 parts per million
  Percent Post-Emergent Control of Seed Germination: 50%
[8]; 2000 parts per million
  Percent Post-Emergent Control of Seed Germination: 95%
[8]; 4000 parts per million
  Percent Post-Emergent Control of Seed Germination: 95%
[9]; 250 parts per million
  Percent Post-Emergent Control of Seed Germination: 50%
[9]; 500 parts per million
  Percent Post-Emergent Control of Seed Germination: 70%
[9]; 1000 parts per million
  Percent Post-Emergent Control of Seed Germination: 85%
[9]; 2000 parts per million
  Percent Post-Emergent Control of Seed Germination: 85%
[9]; 4000 parts per million
  Percent Post-Emergent Control of Seed Germination: 95%
[10]; 250 parts per million
  Percent Post-Emergent Control of Seed Germination: 0%
[10]; 500 parts per million
  Percent Post-Emergent Control of Seed Germination: 0%
[10]; 1000 parts per million
  Percent Post-Emergent Control of Seed Germination: 50%
[10]; 2000 parts per million
  Percent Post-Emergent Control of Seed Germination: 50%
[10]; 4000 parts per million
  Percent Post-Emergent Control of Seed Germination: 65%
[11]; 250 parts per million
  Percent Post-Emergent Control of Seed Germination: 95%
[11]; 500 parts per million
  Percent Post-Emergent Control of Seed Germination: 95%
[11]; 1000 parts per million
  Percent Post-Emergent Control of Seed Germination: 95%
[11]; 2000 parts per million
  Percent Post-Emergent Control of Seed Germination: 95%
[11]; 4000 parts per million
  Percent Post-Emergent Control of Seed Germination: 95%
[12]; 250 parts per million
  Percent Post-Emergent Control of Seed Germination: 30%
[12]; 500 parts per million
  Percent Post-Emergent Control of Seed Germination: 30%
[12]; 1000 parts per million
  Percent Post-Emergent Control of Seed Germination: 50%
[12]; 2000 parts per million
  Percent Post-Emergent Control of Seed Germination: 75%
[12]; 4000 parts per million
  Percent Post-Emergent Control of Seed Germination: 85%
[13]; 250 parts per million
  Percent Post-Emergent Control of Seed Germination: 50%
[13]; 500 parts per million
  Percent Post-Emergent Control of Seed Germination: 50%
[13]; 1000 parts per million
  Percent Post-Emergent Control of Seed Germination: 50%
[13]; 2000 parts per million
  Percent Post-Emergent Control of Seed Germination: 75%
[13]; 4000 parts per million
  Percent Post-Emergent Control of Seed Germination: 75%
[14]; 250 parts per million
  Percent Post-Emergent Control of Seed Germination: 0%
[14]; 500 parts per million
  Percent Post-Emergent Control of Seed Germination: 0%
[14]; 1000 parts per million
  Percent Post-Emergent Control of Seed Germination: 0%
[14]; 2000 parts per million
  Percent Post-Emergent Control of Seed Germination: 40%
[14]; 4000 parts per million
  Percent Post-Emergent Control of Seed Germination: 50%
[15]; 250 parts per million
  Percent Post-Emergent Control of Seed Germination: 95%
[15]; 500 parts per million
  Percent Post-Emergent Control of Seed Germination: 95%
[15]; 1000 parts per million
  Percent Post-Emergent Control of Seed Germination: 95%
[15]; 2000 parts per million
  Percent Post-Emergent Control of Seed Germination: 95%
[15]; 4000 parts per million
  Percent Post-Emergent Control of Seed Germination: 95%
